Read-outs that look alike come from different tables or passages of the source.
Tests used:
[1] = system: fetal islet β cells; assay: SNP-induced apoptosis in cultured fetal islets (TUNEL, confocal microscopy); type: cell-based, Wistar rats; settings: SNP 100 μmol/l
Experimental: Animals and Diets. Adult virgin female Wistar rats were caged overnight with males and copulation was verified the next morning. Animals were maintained at 25° C. with a 10 h-14 h dark-light cycle. Pregnant rats were divided into two groups and fed one of the following isocaloric diets: either a control diet (C) containing 20% protein or a low protein diet (LP) containing 8% protein. The composition of the diet was as described previously by Snoeck et al. 1990 (Biol. Neonate 57, 107-118). The diets were purchased from Hope Farms (Woerden, Holland). Animals in both the groups had free access to water at all times. At 21.5 days of gestation, females were sacrificed by decapitation and fetuses removed.
Islet culture and treatment. Fetal islets were isolated as described by Mourmeaux et al. 1985 (Molecular and Cellular Endocrinology 39:237-246). Islets were cultured in 35 mm Petri-dishes (Falcon plastics, Los Angeles, Calif.) in RPMI 1640 medium (Gibco, Grand Island, N.Y., USA) with 10% Fetal Bovine Serum and antibiotics (penicillin 200 U/ml, streptomycin 0.2 mg/ml). Petri dishes were incubated at 37° C. with 5% CO2 in air. The culture medium was changed daily after the second day. On the 5th day of culture, islets were rinsed twice with serum free DME/F12 medium (1:1, v/v, Gibco, Paisley, Scotland) and subsequently incubated for 42 hours in this medium. […]
TUNEL method for evaluating apoptosis. Apoptosis was evaluated by the TUNEL method described herein, and visualized with confocal microscopy. Cultured islets were fixed in methanol and stored at −20° C. until analysis. The tissue was then washed with phosphate buffered saline (PBS) for 3 min, and a terminal deoxynucleotidyl transferase (TdT) reaction buffer (50 μl) was added. The 50 μl of TdT solution was prepared using 10 μl of 5× concentrated buffer solution (1 mol/l potassium cacodylate; 125 mmol/l Tris-HCl, pH 6.6; 1.26 mg bovine serum albumin). Cobalt chloride (5 μl of 25 mmol/l), 0.5 μl (12.5 units) of TdT (both from Boehringer Mannheim, Germany), and 0.25 nmoles of BODIPY-FL-X-14-dUTP (Molecular Probes, Eugene, Oreg. USA) were added, along with distilled water, up to 50 μl. Islets were incubated in Petri dishes with the TdT reaction buffer for 60 min at 37° C., then rinsed twice with 15 mmol/l EDTA (pH 8.0) in PBS and once with 0.1% Triton X-100 in PBS. Then, 2 ml of PBS containing 2.5 μg/ml of propidium iodide (Molecular Probes, Eugene, Oreg. USA) was added to the dishes for 5 min. Finally, islet cells were washed with 15 mmol/l EDTA (pH 8.0). Islet cells were then double-labelled for apoptotic nuclei, showing the BODIPY-FL-dUTP label in […] and total nuclei with propidium iodide in red.
Confocal microscopy. Staining probes were visualised through a confocal laser scanning microscopy system (MRC-1024 UV; BIO-RAD, UK) equipped with Argon ion and Krypton/Argon ion lasers. BODIPY-FL was excited at 503 nm, ethidium bromide at 510 nm, propidium iodide at 536 nm and Hoechst 33342 at 346 nm. The emissions were recorded respectively at 522/32 nm, 605/32 nm and 455/30 nm. Four to six optical sections were collected at every 15 μm through the islet. The number of BODIPY-FL-positive or ethidium bromide-positive nuclei were reported and expressed as a percentage of the total number of nuclei.
Animals, diets, and fetal islet isolation procedures were conducted as described in Example 1.

[2] = SIN-1
Experimental: Chemiluminescence measurements. Luminol (5-amino-2,3-dihydro-1-4-phtalazinedione) at 400 μmol/l (Sigma Chemical Co.), taurine (0.3 or 3 mmol/l), methionine (0.1 or 1 mmol/l) and β-alanine (0.3 or 3 mmol/l) stock solutions were prepared in PBS. Sydnonimine (SIN-1), also known as 3-morpholinosydnonimine, a source of peroxynitrite, was purchased from Sigma Chemical Co. SIN-1 was prepared as 100 μmol in 1 mol/l NaOH. A reaction was initiated by simultaneous injection of luminol and SIN-1 into wells containing PBS either alone or with supplemental amino acid levels as noted above. Chemiluminescence emitted by luminol in the presence of peroxynitrite was measured every 30 seconds over 20 minutes in a chemifluorophotometer (MicroLumat LB96P, EG&G BERTHOLD), and was quantified as light intensity (10^8 RLU).
Nitric oxide is a reactive free radical which leads to peroxynitrite formation, another reactive free radical, by interaction with superoxide (NO+OO^−→ONOO^−). […] Luminol-derived chemiluminescence induced by peroxynitrite produced by the decomposition of sydnonimine (SIN-1) was evaluated to investigate the possibility that taurine quenched the peroxynitrite formed from NO.

[3] = system: fetal islet cells; assay: IL1β-induced apoptosis in cultured fetal islets (TUNEL); type: cell-based, Wistar rats; settings: 50 U/ml IL 1β for 24 hours; C and LP groups
Experimental: The effect of in vitro taurine on the effect of IL1β-induced apoptosis was assessed. Fetal islets were isolated as described above in Example 1. On the 5th day of culture, islets were rinsed twice with serum free DME/F12 medium (1:1, v/v, Gibco, Paisley, Scotland) and were incubated in this medium supplemented with taurine at 0.3 or 3 mmol/l for 48 hours. For the final 24 hours of this incubation, IL1β (Endogen, Woburn, Mass.) was added to the incubation medium at a level of 50 U/ml. Apoptosis was quantified by confocal microscopy using TUNEL method, as outlined in Example 1.

Molecule: CC(=O)N(O)CCCCCNC(=O)CCC(=O)N(O)CCCCCNC(=O)CCC(=O)N(O)CCCCCN [DFO, desferioxamine, reference compound]
- reduction of the cell death induced by SNP ([1]; LP and C islets, data not shown): about 30%

Molecule: CSCC[C@H](N)C(=O)O [methionine, L-Methionine]
- apoptosis rate ([1]; 0.1 mmol/l methionine, regardless of diet): significantly decreased
- apoptosis rate ([1]; 1.0 mmol/l methionine vs physiological concentration): did not provide additional protection
- luminol chemiluminescence (peroxynitrite quenching) ([2]; methionine 0.1 or 1 mmol/l): No change

Molecule: NCCC(=O)O [β-alanine, 3-aminopropanoic acid, reference compound]
- rate of apoptosis / protection against damage induced by NO ([1]; β-alanine 0.3 or 3 mmol/l): no protective effect
- luminol chemiluminescence (peroxynitrite quenching) ([2]; β-alanine 0.3 or 3 mmol/l): no change

Molecule: IL 1β: macrophage-derived proinflammatory cytokine used to induce islet cell apoptosis
- apoptosis level of fetal islets [3]: increased the apoptosis level

Source: US20030180345A1, “Compositions and methods for inhibiting islet dysfunction and autoimmune disorders” (priority 2000, published 2003)
